Source: US7977477B2, “Benzimidazole derivatives and their use as protein kinase inhibitors” (Astex Therapeutics, Limited, priority 2003, dated 2011)

What was measured:
CDK2/CyclinA = target: T1, CDK2/CyclinA (Homo sapiens, UniProt P24941); assay: CDK2 kinase inhibitory activity (Example 306, Protocol A or B); format: biochemical; conditions: for inhibition at 0.003 µM: read-out: % inhibition (CDK inhibitory activity); for IC50: protocol of Example 306, read-out: IC50 (CDK inhibitory activity)
T1 construct: purchased Upstate Biotechnology
Description: Compounds of the invention were tested for kinase inhibitory activity using either Protocol A or Protocol B.
1.7 μl of active CDK2/CyclinA (Upstate Biotechnology, 10 U/μl) is diluted in assay buffer (250 μl of 10× strength assay buffer (200 mM MOPS pH 7.2, 250 mM β-glycerophosphate, 50 mM EDTA, 150 mM MgCl2), 11.27 μl 10 mM ATP, 2.5 μl 1M DTT, 25 μl 100 mM sodium orthovanadate, 708.53 μl H2O), and 10 μl mixed with 10 μl of histone substrate mix (60 μl bovine histone H1 (Upstate Biotechnology, 5 mg/ml), 940 μl H2O, 35 μCi γ^33P-ATP) and added to 96 well plates along with 5 μl of various dilutions of the test compound in DMSO (up to 2.5%). The reaction is allowed to proceed for 5 hours before being stopped with an excess of ortho-phosphoric acid (30 μl at 2%).
(§1) γ^33P-ATP which remains unincorporated into the histone H1 is separated from phosphorylated histone H1 on a Millipore MAPH filter plate. The wells of the MAPH plate are wetted with 0.5% orthophosphoric acid, and then the results of the reaction are filtered with a Millipore vacuum filtration unit through the wells. Following filtration, the residue is washed twice with 200 μl of 0.5% orthophosphoric acid. Once the filters have dried, 25 μl of Microscint 20 scintillant is added, and then counted on a Packard Topcount for 30 seconds.
The % inhibition of the CDK2 activity is calculated and plotted in order to determine the concentration of test compound required to inhibit 50% of the CDK2 activity (IC50).
Activated CDK2/CyclinA (Brown et al, Nat. Cell Biol., 1, pp 438-443, 1999; Lowe, E. D., et al Biochemistry, 41, pp 15625-15634, 2002) is diluted to 125 pM in 2.5× strength assay buffer (50 mM MOPS pH 7.2, 62.5 mM O-glycerophosphate, 12.5 mM EDTA, 37.5 mM MgCl2, […], 2.5 mM DTT, 2.5 mM sodium orthovanadate, 0.25 mg/ml bovine serum albumin), and 10 fi mixed with 10 A1 of histone substrate mix (60 μl bovine histone H1 (Upstate Biotechnology, 5 mg/ml), 940 μl H2O, 35 μCi γ^33P-ATP) and added to 96 well plates along with 5 μl of various dilutions of the test compound in DMSO (up to 2.5%). The reaction is allowed to proceed for 2 to 4 hours before being stopped with an excess of ortho-phosphoric acid (5 μl at 2%).
as §1, with “20” for “25”

CDK3/cyclinE = CDK3/cyclinE (Homo sapiens, UniProt Q00526); assay: CDK selectivity assay, CDK3; format: biochemical; conditions: read-out: IC50 against CDK 3
Chain of CDK3/cyclinE (Q00526 whole entry): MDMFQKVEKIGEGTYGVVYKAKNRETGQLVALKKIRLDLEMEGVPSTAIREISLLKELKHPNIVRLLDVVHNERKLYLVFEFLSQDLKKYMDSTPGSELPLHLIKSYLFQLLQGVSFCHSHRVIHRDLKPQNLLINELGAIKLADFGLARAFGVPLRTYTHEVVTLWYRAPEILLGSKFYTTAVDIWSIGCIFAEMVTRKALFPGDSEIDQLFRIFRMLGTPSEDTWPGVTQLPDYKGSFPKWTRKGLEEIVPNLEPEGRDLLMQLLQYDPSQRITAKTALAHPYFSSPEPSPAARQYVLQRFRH
Chain of CDK3/cyclinE (P24864 whole entry partner): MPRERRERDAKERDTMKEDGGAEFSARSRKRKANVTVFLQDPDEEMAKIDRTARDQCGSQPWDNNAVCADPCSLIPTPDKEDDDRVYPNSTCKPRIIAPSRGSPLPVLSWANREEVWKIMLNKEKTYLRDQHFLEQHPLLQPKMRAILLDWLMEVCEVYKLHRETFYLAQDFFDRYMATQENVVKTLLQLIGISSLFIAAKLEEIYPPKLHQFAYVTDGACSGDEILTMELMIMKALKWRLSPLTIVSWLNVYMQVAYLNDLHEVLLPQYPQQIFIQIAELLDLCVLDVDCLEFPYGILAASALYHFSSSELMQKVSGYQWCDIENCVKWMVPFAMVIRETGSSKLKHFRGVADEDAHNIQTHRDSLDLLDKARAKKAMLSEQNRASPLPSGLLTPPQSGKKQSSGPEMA
Description: (§2) Compounds of the invention were tested for kinase inhibitory activity against a number of different kinases using the general protocol described in Example 129, but modified as set out below.
(§3) Kinases are diluted to a 10× working stock in 20 mM MOPS pH 7.0, 1 mM EDTA, 0.1% γ-mercaptoethanol, 0.01% Brij-35, 5% glycerol, 1 mg/ml BSA. One unit equals the incorporation of 1 nmol of phosphate per minute into 0.1 mg/ml histone H1, or CDK7 substrate peptide at […] with a final ATP concentration of 100 uM.
(§4) The substrate for all the CDK assays (except CDK7) is histone H1, diluted to 10× working stock in 20 mM MOPS pH 7.4 prior to use. The substrate for CDK7 is a specific peptide diluted to 10× working stock in deionised water.
(§5) Assay Procedure for CDK1/cyclinB, CDK2/cyclinA. CDK2/cyclinE, CDK3/cyclinE, CDK5/p35. CDK6/cyclinD3:
(§6) In a final reaction volume of 25 μl, the enzyme (5-10 mU) is incubated with 8 mM MOPS pH 7.0, 0.2 mM EDTA, 0.1 mg/ml histone H1, 10 mM MgAcetate and [γ-^33P-ATP] (specific activity approx 500 cpm/pmol, concentration as required). The reaction is initiated by the addition of Mg^2+ [γ-^33P-ATP]. After incubation for 40 minutes at room temperature the reaction is stopped by the addition of 5 μl of a 3% phosphoric acid solution. 10 ml of the reaction is spotted onto a P30 filter mat and washed 3 times for 5 minutes in 75 mM phosphoric acid and once in methanol prior to drying and counting.

CDK1/cyclinB = CDK1/cyclinB (Homo sapiens, UniProt P06493); assay: CDK selectivity assay, CDK1; format: biochemical; conditions: read-out: IC50 against CDK 1
Chain of CDK1/cyclinB (P06493 whole entry): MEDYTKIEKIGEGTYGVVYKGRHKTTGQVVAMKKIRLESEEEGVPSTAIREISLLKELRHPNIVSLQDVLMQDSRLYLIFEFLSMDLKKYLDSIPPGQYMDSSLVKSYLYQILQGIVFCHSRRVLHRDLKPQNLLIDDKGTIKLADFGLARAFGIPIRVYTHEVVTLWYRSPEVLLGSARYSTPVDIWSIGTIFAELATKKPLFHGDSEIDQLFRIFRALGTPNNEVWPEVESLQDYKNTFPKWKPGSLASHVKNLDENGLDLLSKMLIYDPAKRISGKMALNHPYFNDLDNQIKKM
Chain of CDK1/cyclinB (P14635 whole entry partner): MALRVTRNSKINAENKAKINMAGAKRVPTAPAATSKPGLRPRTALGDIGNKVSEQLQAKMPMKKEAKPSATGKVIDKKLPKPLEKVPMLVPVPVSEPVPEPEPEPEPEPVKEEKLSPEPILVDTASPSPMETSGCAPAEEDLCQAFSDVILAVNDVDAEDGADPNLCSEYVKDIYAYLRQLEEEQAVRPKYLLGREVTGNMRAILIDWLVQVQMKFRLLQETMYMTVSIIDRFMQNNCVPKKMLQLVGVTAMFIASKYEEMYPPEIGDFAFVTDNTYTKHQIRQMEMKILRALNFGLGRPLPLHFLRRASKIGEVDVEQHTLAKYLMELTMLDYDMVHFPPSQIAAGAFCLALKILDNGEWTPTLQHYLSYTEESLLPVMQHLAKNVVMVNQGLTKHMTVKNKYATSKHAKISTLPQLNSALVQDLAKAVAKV
Description: as §2, §3, §4, §5, §6

CDK5/p35 = CDK5/p35 (Homo sapiens, UniProt Q00535); assay: CDK selectivity assay, CDK5; format: biochemical; conditions: read-out: IC50 against CDK 5
Chain of CDK5/p35 (Q00535 whole entry): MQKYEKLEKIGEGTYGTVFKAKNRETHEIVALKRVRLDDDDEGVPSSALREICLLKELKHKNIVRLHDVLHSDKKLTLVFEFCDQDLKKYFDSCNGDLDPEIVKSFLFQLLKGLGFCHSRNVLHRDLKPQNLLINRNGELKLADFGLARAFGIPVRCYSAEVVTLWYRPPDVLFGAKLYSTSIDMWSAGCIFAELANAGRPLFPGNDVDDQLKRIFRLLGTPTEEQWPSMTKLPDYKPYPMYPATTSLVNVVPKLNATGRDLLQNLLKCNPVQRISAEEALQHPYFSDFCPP
Chain of CDK5/p35 (Q15078 whole entry partner): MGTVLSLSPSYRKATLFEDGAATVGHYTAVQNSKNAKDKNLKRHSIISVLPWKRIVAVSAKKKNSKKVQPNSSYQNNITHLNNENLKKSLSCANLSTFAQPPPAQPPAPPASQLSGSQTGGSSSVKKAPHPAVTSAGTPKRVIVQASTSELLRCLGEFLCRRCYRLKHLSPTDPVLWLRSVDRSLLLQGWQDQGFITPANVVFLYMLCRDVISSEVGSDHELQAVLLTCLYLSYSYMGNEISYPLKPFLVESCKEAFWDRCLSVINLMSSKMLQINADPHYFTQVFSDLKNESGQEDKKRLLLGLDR
Description: as §2, §3, §4, §5, §6

GSK3β (human) = GSK3β (human) (Homo sapiens, UniProt P49841); assay: Inhibitory activity against glycogen synthase kinase-3 (GSK-3); format: biochemical; conditions: read-out: IC50 against GSK30
Chain of GSK3β (human) (P49841 whole entry): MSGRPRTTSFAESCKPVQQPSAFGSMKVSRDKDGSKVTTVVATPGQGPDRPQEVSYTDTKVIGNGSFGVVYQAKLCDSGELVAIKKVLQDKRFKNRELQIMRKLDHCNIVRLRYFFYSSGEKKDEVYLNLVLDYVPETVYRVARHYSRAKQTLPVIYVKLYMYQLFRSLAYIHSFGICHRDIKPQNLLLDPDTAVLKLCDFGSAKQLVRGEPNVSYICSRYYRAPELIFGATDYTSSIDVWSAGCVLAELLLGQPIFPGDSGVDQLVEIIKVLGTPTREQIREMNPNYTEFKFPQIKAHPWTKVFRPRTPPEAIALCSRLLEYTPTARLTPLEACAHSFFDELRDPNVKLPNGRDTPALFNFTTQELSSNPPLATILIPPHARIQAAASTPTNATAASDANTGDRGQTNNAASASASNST
Description: GSK3β (human) is diluted to a 10× working stock in 50 mM Tris pH 7.5, 0.1 mM EGTA, 0.1 mM sodium vanadate, 0.1% β-mercaptoethanol, 1 mg/ml BSA. One unit equals the incorporation of 1 nmol of phosphate per minute phospho-glycogen synthase peptide 2 per minute.
as §6, with “GSK3β” for “the enzyme”, “MOPS” for “MOPS pH”, “20 μM […](p)EDEEE (phospho GS2 peptide),” for “0.1 mg/ml histone H1,”, “Mg^2+[γ-^33P-ATP].” for “Mg^2+ [γ-^33P-ATP].”, “μl” for “ml”, “50” for “75”

HCT-116 cell line = assay: Anti-proliferative activity, inhibition of cell growth (Alamar Blue assay); format: cell-based; conditions: Homo sapiens, 72 hours with compound
Description: The anti-proliferative activity of the compounds of the invention has been determined by measuring inhibition of cell growth in the HCT-116 cell line.
The anti-proliferative activities of compounds of the invention were determined by measuring the ability of the compounds to inhibition of cell growth in a number of cell lines. Inhibition of cell growth was measured using the Alamar Blue assay (Nociari, M. M, Shalev, A., Benias, P., Russo, C. Journal of Immunological Methods 1998, 213, 157-167). The method is based on the ability of viable cells to reduce resazurin to its fluorescent product resorufin. For each proliferation assay cells were plated onto 96 well plates and allowed to recover for 16 hours prior to the addition of inhibitor compounds for a further 72 hours. At the end of the incubation period 10% (v/v) Alamar Blue was added and incubated for a further 6 hours prior to determination of fluorescent product at […]. In the case of the non-proliferating cell assay cells were maintained at confluence for 96 hour prior to the addition of inhibitor compounds for a further 72 hours. The number of viable cells was determined by Alamar Blue assay as before. All cell lines were obtained from ECACC (European Collection of cell Cultures).

IC50 (CDK3/cyclinE) [nM] | IC50 (CDK1/cyclinB) [nM] | IC50 (CDK5/p35) [nM] | SMILES | inhibition at 0.003 µM (CDK2/CyclinA) [%] | also measured
< 1000 | < 1000 | < 1000 | CN1CCN(C(=O)c2ccc3[nH]c(-c4n[nH]cc4NC(=O)c4c(F)cccc4F)nc3c2)CC1 [Example 21, 2,6-Difluoro-N-{3-[5-(4-methyl-piperazine-1-carbonyl)-1H-benzimidazol-2-yl]-1H-pyrazol-4-yl}-benzamide] |  | 
< 1000 | < 1000 | < 1000 | CN1CCN(Cc2cccc3[nH]c(-c4n[nH]cc4NC(=O)c4c(F)cccc4F)nc23)CC1 [Example 13, 2,6-Difluoro-N-[3-(N-methyl-piperazinyl-4-ylmethyl-1H-benzimidazol-2-yl)-1H-pyrazol-4-yl]-benzamide] |  | 
< 1000 | < 1000 | < 1000 | O=C(Nc1c[nH]nc1-c1nc2c(CN3CCOCC3)cccc2[nH]1)c1c(F)cccc1F [Example 12, 2,6-Difluoro-N-[3-(4-morpholin-4-yl-methyl-1H-benzimidazol-2-yl)-1H-pyrazol-4-yl]-benzamide] |  | IC50 (GSK3β (human)): < 1000 nM
< 1000 | < 1000 | < 1000 | CC(C)(C)NCc1cccc2[nH]c(-c3n[nH]cc3NC(=O)c3c(F)cccc3F)nc12 [Example 14, N-{3-[4-(tert-Butylamino-methyl)-1H-benzimidazol-2-yl]-1H-pyrazol-4-yl}-2,6-difluoro-benzamide] |  | 
< 1000 | < 1000 | < 1000 | O=C(Nc1c[nH]nc1-c1nc2ccccc2[nH]1)c1c(F)cccc1F [Example 6, N-[3-(1H-Benzimidazol-2-yl)-1H-pyrazol-4-yl]-2,6-difluoro-benzamide] |  | IC50 (CDK2/CyclinA): 4.8 nM; IC50 (GSK3β (human)): < 1000 nM
< 1000 | < 1000 | < 1000 | COc1cc(F)c(C(=O)Nc2c[nH]nc2-c2nc3ccccc3[nH]2)c(F)c1 [Example 41] |  | 

The remaining lines, values behind:

SMILES | IC50 (CDK3/cyclinE) [nM] | IC50 (CDK1/cyclinB) [nM] | IC50 (CDK5/p35) [nM] | inhibition at 0.003 µM (CDK2/CyclinA) [%] | also measured
O=C(Nc1c[nH]nc1-c1nc2ccccc2[nH]1)c1c(Cl)cccc1Cl [Example 59] |  |  |  | 67 | 
O=C(Nc1c[nH]nc1-c1nc2ccccc2[nH]1)c1ccccc1 [Compound A, reference compound] |  |  |  |  | IC50 (CDK2/CyclinA): 96.7 nM
Cc1cccc(Cl)c1C(=O)Nc1c[nH]nc1-c1nc2ccccc2[nH]1 [Example 57] |  |  |  | 41 | 
Cc1cc2nc(-c3n[nH]cc3NC(=O)c3c(F)cccc3F)[nH]c2cc1C [Example 73] |  |  |  |  | IC50 (CDK2/CyclinA): 4.6 nM; IC50 (HCT-116 cell line): 490 nM
O=C(Nc1c[nH]nc1-c1nc2ccccc2[nH]1)c1c(F)cc(F)cc1F [Example 56] |  |  |  | 58 | 
Cc1ccc(C(=O)Nc2c[nH]nc2-c2nc3cc(C)c(C)cc3[nH]2)cc1 [Compound B, reference compound] |  |  |  |  | IC50 (CDK2/CyclinA): 3000 nM; IC50 (HCT-116 cell line): 5700 nM
O=C(Nc1c[nH]nc1-c1nc2ccccc2[nH]1)c1c(F)cccc1Cl [Example 43] |  |  |  | 52 | 
COc1cccc(F)c1C(=O)Nc1c[nH]nc1-c1nc2ccccc2[nH]1 [Example 44] |  |  |  | 57 | 
